Experimental data as given in US20240174674A1, “NITROGEN-CONTAINING POLYCYCLIC FUSED RING COMPOUND, PHARMACEUTICAL COMPOSITION THEREOF, PREPARATION METHOD THEREFOR, AND USE THEREOF” (APPLIED PHARMACEUTICAL SCIENCE, INC., priority 2021, published 2024).
Where two headings read alike, the source gives them in different places.

Molecular target: RET G810R (Homo sapiens (Human), UniProt P07949, G810R)
Assay: HTRF KinEASE-TK kinase activity test, RET G810R
Details: for inhibitory activity against RET G810R relative to that of selpercatinib (LOXO-292): fold versus selpercatinib (LOXO-292)
[1] = read-out: RET G810R IC50, HTRF kinase assay

RET G810R, sequence (P07949 29-1114 G810R): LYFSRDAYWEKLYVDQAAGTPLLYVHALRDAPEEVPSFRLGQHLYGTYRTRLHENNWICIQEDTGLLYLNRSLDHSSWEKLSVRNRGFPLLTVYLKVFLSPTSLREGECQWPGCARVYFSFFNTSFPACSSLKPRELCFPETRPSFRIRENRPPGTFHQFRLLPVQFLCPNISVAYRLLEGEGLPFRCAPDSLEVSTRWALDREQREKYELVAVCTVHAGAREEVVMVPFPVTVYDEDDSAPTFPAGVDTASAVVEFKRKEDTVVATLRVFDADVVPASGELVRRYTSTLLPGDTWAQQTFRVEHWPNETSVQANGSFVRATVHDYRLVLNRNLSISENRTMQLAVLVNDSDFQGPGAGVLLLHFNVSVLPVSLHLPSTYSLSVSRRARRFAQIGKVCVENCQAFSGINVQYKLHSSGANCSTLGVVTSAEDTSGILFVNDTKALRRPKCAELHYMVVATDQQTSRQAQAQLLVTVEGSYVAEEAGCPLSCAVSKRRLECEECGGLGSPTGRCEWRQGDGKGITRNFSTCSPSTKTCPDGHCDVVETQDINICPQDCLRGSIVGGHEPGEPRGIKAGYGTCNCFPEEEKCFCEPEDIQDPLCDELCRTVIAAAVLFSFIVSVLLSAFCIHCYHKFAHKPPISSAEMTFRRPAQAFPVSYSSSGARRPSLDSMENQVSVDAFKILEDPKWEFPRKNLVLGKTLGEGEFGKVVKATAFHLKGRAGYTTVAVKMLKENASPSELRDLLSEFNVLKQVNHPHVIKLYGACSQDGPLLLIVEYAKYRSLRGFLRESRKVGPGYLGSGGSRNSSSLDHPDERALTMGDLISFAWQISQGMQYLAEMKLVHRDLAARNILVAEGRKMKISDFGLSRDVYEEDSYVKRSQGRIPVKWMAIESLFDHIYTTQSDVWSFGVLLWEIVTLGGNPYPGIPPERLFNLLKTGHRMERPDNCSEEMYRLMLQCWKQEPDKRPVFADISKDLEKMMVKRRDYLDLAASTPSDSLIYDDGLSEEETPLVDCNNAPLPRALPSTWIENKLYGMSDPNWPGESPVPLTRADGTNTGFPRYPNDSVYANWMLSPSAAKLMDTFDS

`CCOc1cc(-c2ccc(N3C[C@@H]4[C@H](C3)[C@@H]4NCc3ccc(OC)nc3)nc2)c2c3cn[nH]c3nn2c1` [Compound 173] showed an IC50 [1] of 12.5 nM.

For `CCOc1cc(-c2ccc(N3C[C@H]4C[C@H](NC(=O)c5c(F)cccc5Cl)C[C@H]4C3)nc2)c2c3cn[nH]c3nn2c1` [Compound 174], the “inhibitory activity against RET G810R relative to that of selpercatinib (LOXO-292)” value was ≥ 10 times and the IC50 [1] was 3.5 nM.

For `CCOc1cc(-c2ccc(N3C[C@@H]4C5CCC([C@@H]4C3)N5C(=O)c3c(F)cccc3Cl)nc2)c2c3cn[nH]c3nn2c1` [Compound 180, (2-chloro-6-fluorophenyl)((3aR,7aS)-2-(5-(6-ethoxy-1H-pyrazolo[3′,4′:3,4]pyrazolo[1,5-α]pyridin-4-yl)pyridin-2-yl)octahydro-1H-4,7-epiminoisoindol-8-yl)methanone], the IC50 [1] was 9.7 nM.

`CCOc1cc(-c2ccc(N3C[C@@H]4[C@@H](CNC(=O)c5c(F)cccc5Cl)[C@@H]4C3)nc2)c2c3cn[nH]c3nn2c1` [Compound 183, 2-chloro-N-(((1R,5S,6s)-3-(5-(6-ethoxy-1H-pyrazolo[3′,4′:3,4]pyrazolo[1,5-α]pyridin-4-yl)pyridin-2-yl)-3-azabicyclo[3.1.0]hexan-6-yl)methyl)-6-fluorobenzamide] showed an IC50 [1] of 8 nM.

`CCOc1cc(-c2ccc(N3CC4(CCCN4Cc4ccc(OC)nc4)C3)nc2)c2c3cn[nH]c3nn2c1` [Compound 188, 6-ethoxy-4-(6-(5-((6-methoxypyridin-3-yl)methyl)-2,5-diazaspiro[3.4]octan-2-yl)pyridin-3-yl)-1 H-pyrazolo[3′,4′:3,4]pyrazolo[1,5-α]pyridine] gave an IC50 [1] of 16.9 nM.

Compound `CCOc1cc(-c2ccc(N3CC4(CCN(C(=O)c5c(F)cccc5Cl)C4)C3)nc2)c2c3cn[nH]c3nn2c1` [Compound 189] has an IC50 [1] of 15.3 nM.

`CCOc1cc(-c2ccc(N3CC4(CCCN(C(=O)c5c(F)cccc5Cl)C4)C3)nc2)c2c3cn[nH]c3nn2c1` [Compound 193, N-(2-(5-(6-ethoxy-1H-pyrazolo[3′,4′:3,4]pyrazolo[1,5-α]pyridin-4-yl)pyridin-2-yl)-2,6-diazaspiro [3.5]nonan-6-yl)-2-chloro-6-fluorobenzamide] gave an IC50 [1] of 33.7 nM.

With `CCOc1cc(-c2ccc(N3CCC4(CC3)CCN4C(=O)c3c(F)cccc3Cl)nc2)c2c3cn[nH]c3nn2c1` [Compound 201, N-(7-(5-(6-ethoxy-1H-pyrazolo[3′,4′:3,4]pyrazolo[1,5-α]pyridin-4-yl)pyridin-2-yl)-1,7-diazaspiro [3.5]nonan-1-yl)-2-chloro-6-fluorobenzamide] the IC50 [1] was 4.1 nM.

`CCOc1cc(-c2ccc(N3CCC4(CCCN4Cc4ccc(OC)nc4)CC3)nc2)c2c3cn[nH]c3nn2c1` [Compound 207, 6-ethoxy-4-(6-(1-((6-methoxypyridin-3-yl)methylene)-1,8-diazaspiro[4.5]octan-8-yl)pyridin-3-yl) -1H-pyrazolo[3′,4′:3,4]pyrazolo[1,5-α]pyridine] showed an IC50 [1] of 49 nM.

`CCOc1cc(-c2ccc(N3CCC4(CCN(C(=O)c5c(F)cccc5Cl)C4)CC3)nc2)c2c3cn[nH]c3nn2c1` [Compound 208, N-(8-(5-(6-ethoxy-1H-pyrazolo[3′,4′:3,4]pyrazolo[1,5-α]pyridin-4-yl)pyridin-2-yl)-2,8-diazaspiro [4.5]decan-2-yl)-2-chloro-6-fluorobenzamide] gave an IC50 [1] of 24.1 nM.

For `CCOc1cc(-c2ccc(N3CCC4(CCCN(C(=O)c5c(F)cccc5Cl)C4)CC3)nc2)c2c3cn[nH]c3nn2c1` [Compound 214], the IC50 [1] was 47.3 nM.

In the case of `CCOc1cc(-c2ccc(N3CCCC4(CCN(Cc5ccc(OC)nc5)CC4)C3)nc2)c2c3cn[nH]c3nn2c1` [Compound 219, 6-ethoxy-4-(6-(9-((6-methoxypyridin-3-yl)methylene)-2,9-diazaspiro[5.5]undecan-2-yl)pyridin-3-yl)-1H-pyrazolo[3′,4′:3,4]pyrazolo[1,5-α]pyridine], the IC50 [1] is reported as 66.4 nM.

Compound `CCOc1cc(-c2ccc(N3CCC4(CN(C(=O)c5c(F)cccc5Cl)C4)C3)nc2)c2c3cn[nH]c3nn2c1` [Compound 220, N-(6-(5-(6-ethoxy-1H-pyrazolo[3′,4′:3,4]pyrazolo[1,5-α]pyridin-4-yl)pyridin-2-yl)-2,6-diazaspiro [3.4]octan-2-yl)-2-chloro-6-fluorobenzamide] has an IC50 [1] of 26.2 nM.

Work on `C#CCOc1cc(-c2ccc(N3CC4CC(C3)N4Cc3ccc(OC)nc3)nc2)c2c3cn[nH]c3nn2c1` [Compound 227, 4-(6-(6-((6-methoxypyridin-3-yl)methylene)-3,6-diazabicyclo[3.1.1]heptan-3-yl)pyridin-3-yl)-6-(prop-2-yn-1-yloxy)-1H-pyrazolo[3′,4′:3,4]pyrazolo[1,5-α]pyridine] yielded an IC50 [1] of 4.01 nM.

For `COC(=O)COc1cc(-c2ccc(N3CC4CC(C3)N4Cc3ccc(OC)nc3)nc2)c2c3cn[nH]c3nn2c1` [Compound 228, Methyl 2-((4-(6-(6-((6-methoxypyridin-3-yl)methylene)-3,6-diazabicyclo[3.1.1]heptan-3-yl)pyridin-3-yl)-1H-pyrazolo[3′,4′:3,4]pyrazolo[1,5-α]pyridin-6-yl)oxy)acetate], the IC50 [1] was 5.7 nM.

Work on `CCOc1cc(-c2ccc(N3CCC(CO)(NCc4ccc(OC)nc4)CC3)nc2)c2c3cn[nH]c3nn2c1` [Compound 229, (1-(5-(6-ethoxy-1H-pyrazolo[3′,4′:3,4]pyrazolo[1,5-α]pyridin-4-yl)pyridin-2-yl)-4-(((6-methoxypyridin-3-yl)methyl)amino)piperidin-4-yl)methanol] yielded an IC50 [1] of 38.1 nM.

With `CCOc1cc(-c2ccc(N3CC[C@H](NC(=O)c4c(F)cccc4F)[C@H](O)C3)nc2)c2c3cn[nH]c3nn2c1` [Compound 233] the “inhibitory activity against RET G810R relative to that of selpercatinib (LOXO-292)” value was ≥ 10 times and the IC50 [1] was 0.96 nM.

`CCOc1cc(-c2ccc(N3CCC(CN(C)C)(NC(=O)c4c(F)cccc4F)CC3)nc2)c2c3cn[nH]c3nn2c1` [Compound 234, N-(4-((dimethylamino)methyl)-1-(5-(6-ethoxy-1H-pyrazolo[3′,4′:3,4]pyrazolo[1,5-α]pyridin-4-yl)pyridin-2-yl)piperidin-4-yl)-2,6-difluorobenzamide] was tested, and the “inhibitory activity against RET G810R relative to that of selpercatinib (LOXO-292)” value was ≥ 10 times and the IC50 [1] was 1.6 nM.

`COc1cc(-c2ccc(N3CC4CC(C3)N4Cc3ccc(OC)nc3)nc2)c2c3cn[nH]c3nn2c1` [Compound 235] was tested, and the “inhibitory activity against RET G810R relative to that of selpercatinib (LOXO-292)” value was ≥ 10 times and the IC50 [1] was 2.2 nM.

With `COc1ccc(CN2C3CC2CN(c2ccc(-c4cc(P(C)(C)=O)cn5nc6[nH]ncc6c45)cn2)C3)cn1` [Compound 237, (4-(6-(6-((6-methoxypyridin-3-yl)methyl)-3,6-diazabicyclo[3.1.1]heptan-3-yl)pyridin-3-yl)-1H-pyrazolo[3′,4′:3,4]pyrazolo[1,5-α]pyridin-6-yl)dimethylphosphine oxide] the IC50 [1] was 112 nM.

`COc1ccc(CN2C3CC2CN(c2ccc(-c4cc(C(=O)O)cn5nc6[nH]ncc6c45)cn2)C3)cn1` [Compound 239, 4-(6-(6-((6-methoxypyridin-3-yl)methyl)-3,6-diazabicyclo[3.1.1]heptan-3-yl)pyridin-3-yl)-1H-py razolo[3′,4′:3,4]pyrazolo[1,5-α]pyridine-6-carboxylic acid] showed an IC50 [1] of 33.7 nM.

`COc1ccc(CN2C3CC2CN(c2ccc(-c4cc(OCC(=O)O)cn5nc6[nH]ncc6c45)cn2)C3)cn1` [Compound 240, 2-((4-(6-(6-((6-methoxypyridin-3-yl)methyl)-3,6-diazabicyclo[3.1.1]heptan-3-yl)pyridin-3-yl)-1 H-pyrazolo[3′,4′:3,4]pyrazolo[1,5-α]pyridin-6-yl)oxy)acetic acid] showed an IC50 of 4 nM.

`C=CC(=O)Oc1cc(-c2ccc(N3CC4CC(C3)N4Cc3ccc(OC)nc3)nc2)c2c3cn[nH]c3nn2c1` [Compound 242, 4-(6-(6-((6-methoxypyridin-3-yl)methyl)-3,6-diazabicyclo[3.1.1]heptan-3-yl)pyridin-3-yl)-1H-py razolo[3′,4′:3,4]pyrazolo[1,5-α]pyridin-6-yl acrylate] gave an IC50 [1] of 4.7 nM.

For `COc1ccc(CN2C3CC2CN(c2ccc(-c4cc(C#N)cn5nc6[nH]ncc6c45)cn2)C3)cn1` [Compound 243], the IC50 [1] was 89 nM.

Compound `CCOc1cc(-c2ccc(N3CCN(Cc4ccc(OC)nc4)C(CN(C)C)C3)nc2)c2c3cn[nH]c3nn2c1` (stereo not drawn) [Compound 245, 1-(4-(5-(6-ethoxy-1H-pyrazolo[3′,4′:3,4]pyrazolo[1,5-α]pyridin-4-yl)pyridin-2-yl)-1-((6-methoxypyridin-3-yl)methylene)piperazin-2-yl)-N,N-dimethylmethanamine] has an IC50 [1] of 20.8 nM.

`CCOc1cc(-c2ccc(N3CC4CC(C3)N4Cc3ccc(OC)nc3)nc2)c2c3c(C#N)n[nH]c3nn2c1` [Compound 248, 3-cyano-6-ethoxy-4-(6-(6-((6-methoxypyridin-3-yl)methyl)-3,6-diazabicyclo[3.1.1]heptan-3-yl)pyridin-3-yl)-1H-pyrazolo[3′,4′:3,4]pyrazolo[1,5-α]pyridine] showed an IC50 [1] of 15.5 nM.

`CCOc1cc(-c2ccc(N3CCN(Cc4ccc(OC)nc4)C(CO)C3)nc2)c2c3cn[nH]c3nn2c1` (stereo not drawn) [Compound 249, (4-(5-(6-ethoxy-1H-pyrazolo[3′,4′:3,4]pyrazolo[1,5-α]pyridin-4-yl)pyridin-2-yl)-1-((6-methoxypyridin-3-yl)methylene)piperazin-2-yl)methanol] gave an IC50 [1] of 13.5 nM.

For `C=CC(=O)N1C2CC1CN(c1ccc(-c3cc(OCC)cn4nc5[nH]ncc5c34)cn1)C2` [Compound 250, 1-(3-(5-(6-ethoxy-1H-pyrazolo[3′,4′:3,4]pyrazolo[1,5-α]pyridin-4-yl)pyridin-2-yl)-3,6-diazabicyclo[3.1.1]heptan-6-yl)prop-2-en-1-one], the IC50 [1] was 40.8 nM.

`CCOc1cc([C@H]2CC[C@](OC)(C(=O)N[C@@H](C)c3ccc(-n4cc(F)cn4)nc3)CC2)c2c3cn[nH]c3nn2c1` [Compound 258, (1S,4R)-4-(6-ethoxy-1H-pyrazolo[3′,4′:3,4]pyrazolo[1,5-α]pyridin-4-yl)-N—((S)-1-(6-(4-fluoro-1H-pyrazol-1-yl)pyridin-3-yl)ethyl)-1-methoxycyclohexane-1-carboxamide] showed an IC50 [1] of 9.9 nM.

For `O=C(N[C@H]1CCN(c2ccc(-c3cc(OCCF)cn4nc5[nH]ncc5c34)cn2)C[C@H]1O)c1c(F)cccc1F` [Compound 267, N-((3R,4S)-1-(5-(6-(2-fluoroethoxy)-1H-pyrazolo[3′,4′:3,4]pyrazolo[1,5-α]pyridin-4-yl)pyridin-2-yl)-3-hydroxypiperidin-4-yl)-2,6-difluorobenzamide], the “inhibitory activity against RET G810R relative to that of selpercatinib (LOXO-292)” value was ≥ 10 times and the IC50 [1] was 3 nM.
